Assay results published in patent US20070099856A1, “Combined treatment with docetaxel and an epidermal growth factor receptor kinase inhibitor using an intermittent dosing regimen” (priority 2005, published 2007).

How the values were obtained:
[1] = tested on: patients with advanced solid tumors; assay: Phase I dose escalation Arm A: DOC every 21 days plus weekly erlotinib days 2, 9, 16; format: in vivo, human
Description: (§1) One explanation is antagonism due to TKI-induced G1 arrest, reducing cell cycle phase-dependent activity of chemotherapy (see FIG. 1). We hypothesized that pharmacodynamic separation by intermittent delivery of HER1/EGFR TKI with chemotherapy might increase efficacy.
(§2) Erlotinib (TARCEVA™) was obtained from OSI Pharmaceuticals, Inc. Melville, N.Y.). Docetaxel (TAXOTERE®) is manufactured and sold by Aventis Pharmaceuticals Inc.

[2] = tested on: patients with advanced solid tumors; assay: Phase I dose escalation Arm B: DOC every 21 days plus erlotinib days 2-16; format: in vivo, human
Description: as §1, §2

NSCLC = conditions: first-line, in combination with standard chemotherapy, NSCLC phase III; cited from earlier work
[3] = tested on: advanced, treatment-refractory NSCLC; conditions: monotherapy, phase III; cited from earlier work

Row | SMILES | Arm A MTD, erlotinib ([1]; weekly (days 2, 9, 16), combined with DOC 70 mg/m^2) | Arm B MTD, erlotinib ([2]; day 2-16, combined with DOC 70 mg/m^2) | Survival (NSCLC) | Survival [3] | Arm A MTD, DOC ([1]; IV every 21 days, combined with weekly erlotinib 600 mg) | Arm B MTD, DOC ([2]; IV every 21 days, combined with erlotinib 200 mg day 2-16)
1 | C#Cc1cccc(Nc2ncnc3cc(OCCOC)c(OCCOC)cc23)c1 [erlotinib, [6,7-bis(2-methoxyethoxy)-4-quinazolin-4-yl]-(3-ethynylphenyl)amine] | 600 mg | 200 mg | did not improve survival | significantly prolonged survival |  | 
2 | CC(=O)O[C@@]12CO[C@@H]1C[C@H](O)[C@@]1(C)C(=O)[C@H](O)C3=C(C)[C@@H](OC(=O)[C@H](O)[C@@H](NC(=O)OC(C)(C)C)c4ccccc4)C[C@@](O)([C@@H](OC(=O)c4ccccc4)[C@H]21)C3(C)C [DOC, docetaxel] |  |  |  |  | 70 mg/m^2 | 70 mg/m^2
3 | COc1cc2ncnc(Nc3ccc(F)c(Cl)c3)c2cc1OCCCN1CCOCC1 [gefitinib] |  |  | did not improve survival |  |  | 
